Data: ChEMBL document CHEMBL5518206, “Hit-to-Lead Identification and Validation of a Triaromatic Pleuromutilin Antibiotic Candidate” (J Med Chem, 2024)

Experiments:
[1] = AUC (0 to infinity) in NMRI female mouse at 60 mg/kg, sc by HPLC analysis; assay type: ADME, organism-based; settings: in vivo
[2] = AUC (0 to infinity) in pig plasma at 3 mg/kg, iv measured upto 240 mins by LC-MS/MS analysis; assay type: ADME, organism-based, Sus scrofa; settings: in vivo, 4 h
[3] = AUC (0 to infinity) in NMRI female mouse at 30 mg/kg, iv by HPLC analysis; assay type: ADME, organism-based; settings: in vivo
[4] = Volume of distribution in NMRI female mouse at 20 mg/kg, sc by HPLC analysis; assay type: ADME, organism-based; settings: in vivo
[5] = Clearance in NMRI female mouse at 60 mg/kg, sc by HPLC analysis; assay type: ADME, organism-based; settings: in vivo
[6] = Half life in NMRI female mouse at 20 mg/kg, sc by HPLC analysis; assay type: ADME, organism-based; settings: in vivo
[7] = Cmax in NMRI female mouse at 30 mg/kg, po by HPLC analysis; assay type: ADME, organism-based; settings: in vivo
[8] = Volume of distribution in pig plasma at 3 mg/kg, iv measured upto 240 mins by LC-MS/MS analysis; assay type: ADME, organism-based, Sus scrofa
[9] = AUC (0 to infinity) in pig urine at 10 mg/kg, po measured upto 240 mins by LC-MS/MS analysis; assay type: ADME, organism-based, Sus scrofa; settings: in vivo, 4 h
[10] = Tmax in pig urine at 10 mg/kg, po measured upto 240 mins by LC-MS/MS analysis; assay type: ADME, organism-based, Sus scrofa
[11] = Elimination rate constant in NMRI female mouse at 30 mg/kg, iv by HPLC analysis; assay type: ADME, organism-based; settings: in vivo
[12] = Half life in pig urine at 3 mg/kg, iv measured upto 240 mins by LC-MS/MS analysis; assay type: ADME, organism-based, Sus scrofa
[13] = Elimination rate constant in pig plasma at 3 mg/kg, iv measured upto 240 mins by LC-MS/MS analysis; assay type: ADME, organism-based, Sus scrofa
[14] = Half life in NMRI female mouse at 60 mg/kg, sc by HPLC analysis; assay type: ADME, organism-based; settings: in vivo
[15] = AUC (0 to infinity) in NMRI female mouse at 30 mg/kg, po by HPLC analysis; assay type: ADME, organism-based; settings: in vivo
[16] = Half life in pig plasma at 10 mg/kg, po measured upto 240 mins by LC-MS/MS analysis; assay type: ADME, organism-based, Sus scrofa
[17] = Bioavailability in NMRI female mouse at 30 mg/kg, po by HPLC analysis; assay type: ADME, organism-based; settings: in vivo
[18] = Tmax in pig plasma at 3 mg/kg, iv measured upto 240 mins by LC-MS/MS analysis; assay type: ADME, organism-based, Sus scrofa
[19] = Volume of distribution in NMRI female mouse at 60 mg/kg, sc by HPLC analysis; assay type: ADME, organism-based; settings: in vivo
[20] = Clearance in pig plasma at 10 mg/kg, po measured upto 240 mins by LC-MS/MS analysis; assay type: ADME, organism-based, Sus scrofa
[21] = Efflux ratio of apparent permeability from basolateral to apical side over apical to basolateral side in human Caco-2 cells at 10 uM; assay type: ADME, cell-based
Staphylococcus aureus [22] = assay: Induction of resistant development in linezolid 5 passages resistance developed Staphylococcus aureus USA300 FPR3757 assessed as fold increase in MIC at sub-MIC concentration measured after 22 passages with conjugate by serial passage assay; assay type: functional
Cytochrome P450 3A4 = Cytochrome P450 3A4 (Homo sapiens, UniProt P08684); assay: Inhibition of CYP3A4 in pooled human liver microsomes using midazolam as substrate; assay type: ADME, Microsome
Chain of Cytochrome P450 3A4 (P08684 whole entry): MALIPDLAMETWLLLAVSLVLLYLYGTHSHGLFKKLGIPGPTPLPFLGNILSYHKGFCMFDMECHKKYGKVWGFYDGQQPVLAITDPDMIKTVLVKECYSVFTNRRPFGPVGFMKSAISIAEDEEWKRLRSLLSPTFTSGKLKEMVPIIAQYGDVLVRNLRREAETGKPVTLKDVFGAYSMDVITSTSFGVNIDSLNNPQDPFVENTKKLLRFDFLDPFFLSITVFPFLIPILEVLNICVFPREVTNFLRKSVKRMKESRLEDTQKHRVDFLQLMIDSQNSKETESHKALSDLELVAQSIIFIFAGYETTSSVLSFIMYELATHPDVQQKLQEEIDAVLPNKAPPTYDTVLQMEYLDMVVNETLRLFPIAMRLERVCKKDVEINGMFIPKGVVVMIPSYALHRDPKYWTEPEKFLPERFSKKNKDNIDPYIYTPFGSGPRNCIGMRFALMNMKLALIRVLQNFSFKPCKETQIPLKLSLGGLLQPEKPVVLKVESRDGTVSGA

Staphylococcus aureus [23] = assay: (§1) Induction of resistant development in lefamulin 5 passages resistance developed Staphylococcus aureus USA300 FPR3757 assessed as fold increase in MIC at sub-MIC concentration measured after 9 passages with conjugate by serial passage assay; assay type: functional
Staphylococcus aureus [24] = assay: as §1, with “-(6-(6-(Piperazin-1-y1)-9H-purin-9-y)methyl)pyridin-3-y1)-1H-1,2,3-triazol-1-yl)-22-deoxypleuromutilin-16” for “lefamulin 5”; assay type: functional
Staphylococcus aureus [25] = assay: Induction of resistant development in linezolid 5 passages resistance developed Staphylococcus aureus USA300 FPR3757 assessed as fold increase in MIC at sub-MIC concentration measured after 5 passages with conjugate by serial passage assay; assay type: functional
Staphylococcus aureus [26] = assay: Induction of resistant development in lefamulin 5 passages resistance developed Staphylococcus aureus USA300 FPR3757 assessed as fold increase in MIC at sub-MIC concentration measured after 18 passages with conjugate by serial passage assay; assay type: functional

Compound: C=C[C@]1(C)C[C@@H](OC(=O)Cn2cc(-c3ccc(Cn4cnc5c(N6CCNCC6)ncnc54)nc3)nn2)[C@]2(C)[C@H](C)CC[C@]3(CCC(=O)[C@H]32)[C@@H](C)[C@@H]1O
- AUC [1]: 428 µg/mL/min
- AUC [2]: 35.5 µg/mL/min
- AUC [3]: 643 µg/mL/min
- Vd [4]: 17.1 L/kg
- CL/F [5]: 140 mL/min/kg
- half-life [6]: 2.07 h
- Cmax [7]: 8.2 ng/mL
- Vd [8]: 3.46 L/kg
- AUC [9]: 22.5 µg/mL/min
- Tmax [10]: 1 h
- k el [11]: 0.000218 s⁻¹
- half-life [12]: 0.46 h
- k el at 4 h [13]: 0.000155 s⁻¹
- half-life [14]: 1.9 h
- AUC [15]: 1.6 µg/mL/min
- half-life [16]: 0.37 h
- bioavailability [17]: 0.3%
- Tmax [18]: 0 h
- Vd [19]: 22 L/kg
- CL/F [20]: 1420 mL/min/kg

Compound: C=C[C@]1(C)C[C@@H](OC(=O)CS[C@@H]2CC[C@@H](N)C[C@H]2O)[C@]2(C)[C@H](C)CC[C@]3(CCC(=O)[C@H]32)[C@@H](C)[C@@H]1O [LEFAMULIN]
- efflux ratio at 10 µM [21]: 68
- fold change (FC) (Staphylococcus aureus [22]): 32
- Ki (Cytochrome P450 3A4): 860 nM
- fold change (FC) (Staphylococcus aureus [23]): 16
- fold change (FC) (Staphylococcus aureus [24]): 8
- fold change (FC) (Staphylococcus aureus [25]): 4
- fold change (FC) (Staphylococcus aureus [26]): 32
